# Like-named read-outs stand apart in the source and are kept apart here.
# Experiments:
# [1] = tested on: rat peritoneal mast cells; experiment: Mast cell stabilization test: histamine release inhibition; format: cell-based, Wistar male rats; conditions: for inhibition at 100 µM: Rattus norvegicus, Mast cell, 100 µM of sodium cromoglycate
# Protocol: (§1) Peritoneal rat mast cells are collected from 250 to 300 g Wistar male rats by the following procedure. Following sacrifice, each rat is injected into the peritoneal cavity with 10 ml of ice cold HEPES-buffered salt solution (HBSS), pH 7.2, containing 5 U/ml heparin. The HBSS contains 137 mM of […], 10mM HEPES, 5mM D-glucose, 2.7 mM KCl, 0.4 mM NaH₂PO₄, 0.5 mM MgCl₂ and 1 % foetal calf serum (FCS). The abdomen is massaged gently for 2 to 3 minutes and then an incision is made in the abdomen, the buffer removed by a pipette, and the peritoneal cavity lavaged twice with ice-cold HBSS. The extract is then centrifuged at 200 rpm for 10 minutes at 20°C to collect the peritoneal mast cells. These cells are then suspended again in HBSS. A count of cells present is made using an aliquot of this suspension by staining with Kimura metachromatic stain. Typically, about 1.2 to 1.7x10⁶ mast cells are collected from each animal. The rat mast cells are then activated using a Compound 48/80 in the presence of the test aromatic and antihistamine compounds and histamine-release measured as follows. 720 µl aliquots containing 9 x 10⁴ mast cells at 37°C are added to vials containing various combinations of aromatic flavour compounds. The concentrations of tyloxapol, menthol, camphor, and eucalyptol are 0.7 %, 0.025 %, 0.015 %, and 0.0075 % respectively. The solutions are incubated for about 10 minutes before 200 µl aliquots are added to tubes containing 25 µl of Compound 48/80, 25 µl of sodium cromoglycate and/or buffer, giving a concentration of Compound 48/80 and sodium cromoglycate in the tubes of […] and 0.005 % respectively. The histamine release reactions in the tubes is terminated after 10 minutes (37°C) by adding 750 µl of ice-cold HBSS and centrifuging the resulting solution for 10 minutes at 2000 rpm at 4°C. The histamine released by stimulus and the total cell histamine content are respectively determined by assaying the supernatant liquid after acidification with 5 % trichloroacetic acid (TCA) and by disintegrating the cells in 5 % (TCA) followed by analysis by automated spectrofluoremetry. […] Eucalyptol at 0.0075 % gave a 9 % (non-significant) inhibitory effect. Menthol at 0.025 % was not effective.
# [2] = tested on: rat peritoneal mast cells; experiment: Mast cell stabilization test: induced histamine release; format: cell-based, Wistar male rats; conditions: at the concentrations used: sodium cromoglycate 0.005 %, menthol 0.025 %, camphor 0.015 %, eucalyptol 0.0075 %
# Protocol: as §1, with “(The net histamine release induced by compound 48/80” for “Eucalyptol”, “the concentration used (0.1 µg/ml)” for “0.0075 % gave a 9 % (non-significant) inhibitory effect. Menthol at 0.025 %”, “about three times the net histamine release induced by tyloxapol (15.07 ± 2.0 %)).” for “not effective.”
Compound,"inhibition of histamine release against Compound 48/80 and tyloxapol-induced histamine release ([1]; camphor at 0.015 %, series of five experiments)",release of histamine induced by the substance [2],"inhibitory effect on histamine release ([1]; eucalyptol at 0.0075 %, non-significant)",inhibition of histamine release ([1]; menthol at 0.025 %),inhibition at 100 µM ([1]; read-out: inhibition of Compound 48/80-induced histamine release),inhibition at 100 µM ([1]; read-out: inhibition of tyloxapol-induced histamine release)
CC12CCC(CC1=O)C2(C)C (stereo not drawn) [camphor],45%,did not induce release of histamine,,,,
CC12CCC(CC1)C(C)(C)O2 [eucalyptol],,did not induce release of histamine,9%,,,
CC1CCC(C(C)C)C(O)C1 (stereo not drawn) [menthol],,did not induce release of histamine,,not effective,,
O=C(O)c1cc(=O)c2c(OCC(O)COc3cccc4oc(C(=O)O)cc(=O)c34)cccc2o1 [sodium cromoglycate],,did not induce release of histamine,,,67%,152%
